Experimental findings from ChEMBL document CHEMBL2321833, “Design and optimization of selective protein kinase C θ (PKCθ) inhibitors for the treatment of autoimmune diseases” (J Med Chem, 2013) are described below.

pIC50, pKi: −log10 of the molar value. Some results are limits rather than exact numbers.

For data set [1], the target named is T1, Protein kinase C theta type (Homo sapiens, UniProt Q04759). In words: Inhibition of full-length recombinant PKC theta (unknown origin) using ERMRPRKRQGSVRRRV as substrate after 60 mins by scintillation counting analysis in presence of [gamma-33P]ATP.
In data set [2] the target is Protein kinase C alpha type (Homo sapiens, UniProt P17252). In words: Inhibition of PKC alpha (unknown origin) using RRRRRKGSFKRKA as substrate after 15 mins by spectrophotometry in presence of ATP.
The test system of a further data set is Blood. In words: Inhibition of PKC theta in human whole blood assessed as IL-2 level after 1 hr by ELISA. In kind it is functional, tissue-based.
Data set [3] is described as follows: Half life in rat at 3 mg/kg, iv and 10 mg/kg, po. Type of data set: ADME, organism-based. The settings on record: in vivo.
Data set [4] addresses Tyrosine-protein kinase Fyn (Homo sapiens, UniProt P06241). In words: Inhibition of Fyn (unknown origin).
Data set [5] addresses T2, Protein kinase C epsilon type (Homo sapiens, UniProt Q02156).
T2 sequence (Q02156 whole entry): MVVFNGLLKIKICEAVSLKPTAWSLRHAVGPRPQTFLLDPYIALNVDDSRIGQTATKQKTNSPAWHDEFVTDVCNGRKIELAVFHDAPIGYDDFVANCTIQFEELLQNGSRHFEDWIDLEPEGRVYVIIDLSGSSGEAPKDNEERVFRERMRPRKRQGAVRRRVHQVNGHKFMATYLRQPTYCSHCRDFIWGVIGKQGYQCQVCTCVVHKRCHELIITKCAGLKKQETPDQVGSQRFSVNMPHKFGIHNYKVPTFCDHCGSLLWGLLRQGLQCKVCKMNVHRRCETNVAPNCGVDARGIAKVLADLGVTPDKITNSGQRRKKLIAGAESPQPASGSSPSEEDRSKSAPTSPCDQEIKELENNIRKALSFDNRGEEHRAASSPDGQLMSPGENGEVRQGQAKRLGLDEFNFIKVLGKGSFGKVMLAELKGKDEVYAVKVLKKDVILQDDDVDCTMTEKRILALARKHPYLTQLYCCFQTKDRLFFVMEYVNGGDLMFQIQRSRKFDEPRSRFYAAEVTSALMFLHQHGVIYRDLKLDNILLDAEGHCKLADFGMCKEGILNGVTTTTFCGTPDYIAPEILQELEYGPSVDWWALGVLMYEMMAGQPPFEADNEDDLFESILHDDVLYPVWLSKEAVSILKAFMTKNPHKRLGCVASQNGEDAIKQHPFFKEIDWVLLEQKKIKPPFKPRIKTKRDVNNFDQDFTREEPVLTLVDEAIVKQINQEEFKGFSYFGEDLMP
In words: Inhibition of PKC epsilon (unknown origin).

A short description of data set [6]: Cmax in Balb/c mouse at 25 mg/kg, po. The note with it: in vivo. In kind it is ADME, organism-based. On the set-up: dose 25 mg/kg, route oral.
For data set [7], the target named is RAF proto-oncogene serine/threonine-protein kinase (Homo sapiens, UniProt P04049). In words: Inhibition of c-Raf (unknown origin).
Data set [8] concerns the target Protein kinase C gamma type (Homo sapiens, UniProt P05129). In words: Inhibition of PKC gamma (unknown origin).
In data set [9] the target is Tyrosine-protein kinase Lyn (Homo sapiens, UniProt P07948). In words: Inhibition of Lyn (unknown origin).
Data set [10] concerns the target Mitogen-activated protein kinase 3 (Homo sapiens, UniProt P27361). In words: Inhibition of Erk-1 (unknown origin).
Data set [11] addresses T1, Protein kinase C theta type. In words: Inhibition of PKC-theta in human PBMC cells assessed as inhibition of IL-2 after 24 hrs by bead-based FLISA assay. In kind it is cell-based.
Data set [12] addresses Tyrosine-protein kinase Lck (Homo sapiens, UniProt P06239). In words: Inhibition of Lck (unknown origin).
Data set [13] deals with T3, Serine/threonine-protein kinase D1 (Homo sapiens, UniProt Q15139).
T3 sequence (Q15139 whole entry): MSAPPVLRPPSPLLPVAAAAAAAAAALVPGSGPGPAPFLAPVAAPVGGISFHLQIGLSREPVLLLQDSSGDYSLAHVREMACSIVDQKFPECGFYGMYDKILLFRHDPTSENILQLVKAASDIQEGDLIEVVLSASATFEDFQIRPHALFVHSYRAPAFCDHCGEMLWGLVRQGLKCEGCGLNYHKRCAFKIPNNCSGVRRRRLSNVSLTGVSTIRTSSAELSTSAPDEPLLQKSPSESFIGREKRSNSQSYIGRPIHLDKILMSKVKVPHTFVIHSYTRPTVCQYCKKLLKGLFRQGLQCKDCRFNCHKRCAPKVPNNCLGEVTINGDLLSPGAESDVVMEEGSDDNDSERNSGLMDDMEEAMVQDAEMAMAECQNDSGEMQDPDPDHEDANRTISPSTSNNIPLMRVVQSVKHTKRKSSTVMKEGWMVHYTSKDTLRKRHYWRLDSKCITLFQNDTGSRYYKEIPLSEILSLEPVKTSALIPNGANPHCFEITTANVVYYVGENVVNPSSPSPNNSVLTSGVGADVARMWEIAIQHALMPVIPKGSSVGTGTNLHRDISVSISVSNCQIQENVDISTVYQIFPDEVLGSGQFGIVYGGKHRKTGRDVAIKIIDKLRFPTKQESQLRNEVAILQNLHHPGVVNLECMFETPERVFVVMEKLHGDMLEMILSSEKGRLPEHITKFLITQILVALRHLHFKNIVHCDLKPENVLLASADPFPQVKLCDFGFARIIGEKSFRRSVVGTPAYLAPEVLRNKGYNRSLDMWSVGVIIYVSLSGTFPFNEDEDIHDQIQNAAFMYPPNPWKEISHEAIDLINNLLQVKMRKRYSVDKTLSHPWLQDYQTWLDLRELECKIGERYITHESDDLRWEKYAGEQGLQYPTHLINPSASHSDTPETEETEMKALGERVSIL
In words: Inhibition of PKC mu (unknown origin).

Data set [14] has as its target Protein kinase C beta type (Homo sapiens, UniProt P05771). In words: Inhibition of PKC beta1 (unknown origin).
A short description of data set [15]: Clearance in rat at 3 mg/kg, iv and 10 mg/kg, po. Type of data set: ADME, organism-based. The note with it: in vivo.
The target in data set [16] is Protein kinase C eta type (Homo sapiens, UniProt P24723). In words: Inhibition of PKC eta (unknown origin).
Protein kinase C eta type, sequence (P24723 whole entry): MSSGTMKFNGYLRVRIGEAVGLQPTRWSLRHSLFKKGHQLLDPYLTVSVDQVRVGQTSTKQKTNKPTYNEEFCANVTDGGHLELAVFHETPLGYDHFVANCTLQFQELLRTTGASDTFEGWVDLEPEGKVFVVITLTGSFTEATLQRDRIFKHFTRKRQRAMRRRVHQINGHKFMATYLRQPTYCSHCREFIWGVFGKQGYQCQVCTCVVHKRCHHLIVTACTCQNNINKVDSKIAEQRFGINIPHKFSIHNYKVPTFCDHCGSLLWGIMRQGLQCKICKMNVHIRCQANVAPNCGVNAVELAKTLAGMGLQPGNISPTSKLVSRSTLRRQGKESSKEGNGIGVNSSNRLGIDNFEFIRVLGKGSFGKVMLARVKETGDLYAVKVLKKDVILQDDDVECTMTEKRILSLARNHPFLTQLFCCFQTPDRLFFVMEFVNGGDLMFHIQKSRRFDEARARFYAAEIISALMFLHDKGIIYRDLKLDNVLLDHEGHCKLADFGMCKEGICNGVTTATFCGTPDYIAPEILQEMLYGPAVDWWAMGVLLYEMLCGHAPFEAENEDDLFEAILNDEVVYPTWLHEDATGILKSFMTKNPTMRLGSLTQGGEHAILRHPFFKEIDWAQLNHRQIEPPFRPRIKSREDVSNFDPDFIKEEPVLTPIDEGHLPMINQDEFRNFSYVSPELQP

T1 sequence (Q04759 whole entry): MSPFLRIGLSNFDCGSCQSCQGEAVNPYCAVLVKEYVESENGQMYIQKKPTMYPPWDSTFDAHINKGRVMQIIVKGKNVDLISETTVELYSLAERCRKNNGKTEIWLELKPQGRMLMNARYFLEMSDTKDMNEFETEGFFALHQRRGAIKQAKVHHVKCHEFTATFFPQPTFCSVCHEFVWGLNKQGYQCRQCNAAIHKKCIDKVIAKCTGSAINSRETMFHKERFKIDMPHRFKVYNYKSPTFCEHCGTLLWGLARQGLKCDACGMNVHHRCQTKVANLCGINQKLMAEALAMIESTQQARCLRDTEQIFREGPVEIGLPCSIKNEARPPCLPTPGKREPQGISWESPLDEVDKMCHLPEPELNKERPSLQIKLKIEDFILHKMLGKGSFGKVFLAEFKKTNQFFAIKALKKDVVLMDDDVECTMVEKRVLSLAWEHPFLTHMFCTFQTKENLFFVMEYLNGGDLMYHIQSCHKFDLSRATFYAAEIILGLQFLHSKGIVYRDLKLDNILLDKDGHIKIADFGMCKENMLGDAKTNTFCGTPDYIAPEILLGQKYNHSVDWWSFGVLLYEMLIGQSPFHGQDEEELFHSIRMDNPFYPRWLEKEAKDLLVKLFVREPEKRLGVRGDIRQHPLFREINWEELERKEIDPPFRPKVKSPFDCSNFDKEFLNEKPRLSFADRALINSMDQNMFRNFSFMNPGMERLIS
Tyrosine-protein kinase Fyn, sequence (P06241 whole entry): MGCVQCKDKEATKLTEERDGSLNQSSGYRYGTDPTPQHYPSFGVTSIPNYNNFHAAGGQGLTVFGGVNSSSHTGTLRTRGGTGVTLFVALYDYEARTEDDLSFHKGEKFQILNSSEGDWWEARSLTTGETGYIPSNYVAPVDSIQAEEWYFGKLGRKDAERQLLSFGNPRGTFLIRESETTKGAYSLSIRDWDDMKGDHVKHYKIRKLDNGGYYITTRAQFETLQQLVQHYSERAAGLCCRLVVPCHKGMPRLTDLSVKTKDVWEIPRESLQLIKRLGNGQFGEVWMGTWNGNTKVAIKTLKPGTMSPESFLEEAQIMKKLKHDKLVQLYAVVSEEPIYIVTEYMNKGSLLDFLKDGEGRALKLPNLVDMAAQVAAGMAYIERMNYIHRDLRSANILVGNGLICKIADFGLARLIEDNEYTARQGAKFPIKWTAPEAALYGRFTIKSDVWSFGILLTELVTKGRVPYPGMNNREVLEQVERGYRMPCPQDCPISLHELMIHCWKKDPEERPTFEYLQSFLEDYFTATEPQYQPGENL
Tyrosine-protein kinase Lck, sequence (P06239 whole entry): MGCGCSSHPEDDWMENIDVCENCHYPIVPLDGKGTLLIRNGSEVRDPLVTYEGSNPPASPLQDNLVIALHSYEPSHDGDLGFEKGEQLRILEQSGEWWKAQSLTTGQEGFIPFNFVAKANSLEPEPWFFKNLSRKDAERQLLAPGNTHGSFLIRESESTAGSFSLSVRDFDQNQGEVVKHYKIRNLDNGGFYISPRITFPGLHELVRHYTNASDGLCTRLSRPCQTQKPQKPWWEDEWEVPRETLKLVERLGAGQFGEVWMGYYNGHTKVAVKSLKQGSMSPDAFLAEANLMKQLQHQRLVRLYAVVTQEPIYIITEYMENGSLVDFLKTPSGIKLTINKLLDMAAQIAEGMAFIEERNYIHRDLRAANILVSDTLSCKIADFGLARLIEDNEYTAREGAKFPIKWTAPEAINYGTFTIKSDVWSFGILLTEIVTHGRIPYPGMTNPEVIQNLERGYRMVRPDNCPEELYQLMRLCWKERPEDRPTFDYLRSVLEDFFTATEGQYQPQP
Tyrosine-protein kinase Lyn, sequence (P07948 whole entry): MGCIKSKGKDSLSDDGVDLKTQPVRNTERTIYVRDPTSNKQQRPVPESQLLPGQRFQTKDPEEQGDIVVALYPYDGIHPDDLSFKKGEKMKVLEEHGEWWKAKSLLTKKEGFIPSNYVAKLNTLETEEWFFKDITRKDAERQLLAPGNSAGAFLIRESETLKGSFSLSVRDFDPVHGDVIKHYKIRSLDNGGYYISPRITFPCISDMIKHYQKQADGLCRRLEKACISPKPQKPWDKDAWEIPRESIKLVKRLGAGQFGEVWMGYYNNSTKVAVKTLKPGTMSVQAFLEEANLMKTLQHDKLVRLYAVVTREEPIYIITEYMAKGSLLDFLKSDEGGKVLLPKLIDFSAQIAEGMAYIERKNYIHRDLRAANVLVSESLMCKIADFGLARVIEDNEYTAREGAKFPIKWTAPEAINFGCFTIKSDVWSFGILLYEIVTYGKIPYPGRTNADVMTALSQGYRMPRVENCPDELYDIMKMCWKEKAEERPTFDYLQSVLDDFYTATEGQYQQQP
Mitogen-activated protein kinase 3, sequence (P27361 whole entry): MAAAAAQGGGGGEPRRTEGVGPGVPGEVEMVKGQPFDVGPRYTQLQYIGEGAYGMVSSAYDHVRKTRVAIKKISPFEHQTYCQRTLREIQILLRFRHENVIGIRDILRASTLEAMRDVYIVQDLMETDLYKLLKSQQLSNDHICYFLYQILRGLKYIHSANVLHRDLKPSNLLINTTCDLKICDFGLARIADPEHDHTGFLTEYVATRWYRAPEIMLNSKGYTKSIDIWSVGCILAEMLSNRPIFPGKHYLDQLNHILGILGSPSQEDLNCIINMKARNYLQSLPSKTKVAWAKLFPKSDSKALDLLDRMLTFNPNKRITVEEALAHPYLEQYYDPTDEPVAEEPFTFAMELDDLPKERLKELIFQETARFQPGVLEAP

As to `CC(C)[C@@](C)(O)[C@@H]1CN(c2nc(-c3n[nH]c4ncccc34)c(F)cc2Cl)CCN1`, the pKi in [1] was 10.10; in [2], 6.45; in data set [4], less than 6.00; in data set [5] it was 9.00; in [7], less than 6.00; in [8] it was 6.14. For the same molecule, the negative-log Ki (pKi) in data set [9] is less than 6.00; in data set [10], less than 6.00; in data set [12], less than 6.00; in data set [13] it was 5.62; in data set [14], 7.82; in data set [16], 8.46. The results for the pIC50 (in the data set with Blood; in data set [11]) were 7.15 and 7.96, respectively. Also, the half-life in data set [3] was 4.7 h. Moreover, the maximum concentration (Cmax) in data set [6] was determined as 700 ng/mL. The molecule further displayed a clearance in data set [15] of 7 mL/min/kg.
